The supplement of paper PMC10307832

Legend:
Assay in all cases: relative viability (nuclei count vs DMSO), 5 days (fraction); higher = more cells survive
NCI-H1915 = test system: NCI-H1915
How it was run: (§1)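 Lung cancer cell lines in 1536-well plates were dosed by pin tool the day after seeding, either with one drug alone or with a fixed anchor-drug dose plus five library-drug doses (not always all listed) in √10 steps. After 5 days, cells were fixed and their nuclei stained in one step (final 0.05% Triton X-100, 1% formaldehyde, 1 ug/ml Hoechst), then counted on 4× images. Relative viability is the nuclei count in treated wells divided by that in vehicle wells. Values are medians of duplicate plates.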

LCLC-103H = test system: LCLC-103H
How it was run: as §1

LXF-289 = test system: LXF-289
How it was run: as §1

A-427 = test system: A-427
How it was run: as §1

NCI-H1651 = test system: NCI-H1651
How it was run: as §1

NCI-H596 = test system: NCI-H596
How it was run: as §1

EKVX = test system: EKVX
How it was run: as §1

NCI-H2347 = test system: NCI-H2347
How it was run: as §1

COR-L23 = test system: COR-L23
How it was run: as §1

HCC-44 = test system: HCC-44
How it was run: as §1

NCI-H358 = test system: NCI-H358
How it was run: as §1

201T = test system: 201T
How it was run: as §1

EPLC-272H = test system: EPLC-272H
How it was run: as §1

NCI-H1793 = test system: NCI-H1793
How it was run: as §1

NCI-H460 = test system: NCI-H460
How it was run: as §1

NCI-H1650 = test system: NCI-H1650
How it was run: as §1

LK-2 = test system: LK-2
How it was run: as §1

NCI-H2087 = test system: NCI-H2087
How it was run: as §1

EMC-BAC-2 = test system: EMC-BAC-2
How it was run: as §1

NCI-H2126 = test system: NCI-H2126
How it was run: as §1

SW 1573 = test system: SW 1573
How it was run: as §1

HCC-827 = test system: HCC-827
How it was run: as §1

BEN = test system: BEN
How it was run: as §1

O=C(O)CCCCC(CCSCc1ccccc1)SCc1ccccc1 (centres undefined) [CPI-613] + N=C(N)NC(=N)NCCc1ccccc1 [Phenformin] (partner 250 µM)
relative viability (NCI-H1915; first compound 5 µM): 0.374 | relative viability (NCI-H1915; first compound 15.81 µM): 0.372 | relative viability (NCI-H1915; first compound 50 µM): 0.354 | relative viability (NCI-H1915; first compound 158.11 µM): 0.339 | relative viability (NCI-H1915; first compound 500 µM): 0.0398 | relative viability (LCLC-103H; first compound 5 µM): 0.322 | relative viability (LCLC-103H; first compound 15.81 µM): 0.297 | relative viability (LCLC-103H; first compound 50 µM): 0.377 | relative viability (LCLC-103H; first compound 158.11 µM): 0.294 | relative viability (LCLC-103H; first compound 500 µM): 0.278 | relative viability (LXF-289; first compound 5 µM): 0.516 | relative viability (LXF-289; first compound 15.81 µM): 0.504 | relative viability (LXF-289; first compound 50 µM): 0.511 | relative viability (LXF-289; first compound 158.11 µM): 0.443 | relative viability (LXF-289; first compound 500 µM): 0.0481 | relative viability (A-427; first compound 5 µM): 0.279 | relative viability (A-427; first compound 15.81 µM): 0.255 | relative viability (A-427; first compound 50 µM): 0.267 | relative viability (A-427; first compound 158.11 µM): 0.178 | relative viability (A-427; first compound 500 µM): 0.1 | relative viability (NCI-H1651; first compound 5 µM): 0.326 | relative viability (NCI-H1651; first compound 15.81 µM): 0.316 | relative viability (NCI-H1651; first compound 50 µM): 0.303 | relative viability (NCI-H1651; first compound 158.11 µM): 0.166 | relative viability (NCI-H1651; first compound 500 µM): 0.126 | relative viability (NCI-H596; first compound 5 µM): 0.64 | relative viability (NCI-H596; first compound 15.81 µM): 0.672 | relative viability (NCI-H596; first compound 50 µM): 0.812 | relative viability (NCI-H596; first compound 158.11 µM): 0.668 | relative viability (NCI-H596; first compound 500 µM): 0.0197 | relative viability (EKVX; first compound 5 µM): 0.247 | relative viability (EKVX; first compound 15.81 µM): 0.223 | relative viability (EKVX; first compound 50 µM): 0.212 | relative viability (EKVX; first compound 158.11 µM): 0.164 | relative viability (EKVX; first compound 500 µM): 0.213 | relative viability (NCI-H2347; first compound 5 µM): 0.441 | relative viability (NCI-H2347; first compound 15.81 µM): 0.352 | relative viability (NCI-H2347; first compound 50 µM): 0.461 | relative viability (NCI-H2347; first compound 158.11 µM): 0.471 | relative viability (NCI-H2347; first compound 500 µM): 0.378 | relative viability (COR-L23; first compound 5 µM): 0.438 | relative viability (COR-L23; first compound 15.81 µM): 0.393 | relative viability (COR-L23; first compound 50 µM): 0.475 | relative viability (COR-L23; first compound 158.11 µM): 0.199 | relative viability (COR-L23; first compound 500 µM): 0.0157 | relative viability (HCC-44; first compound 5 µM): 0.15 | relative viability (HCC-44; first compound 15.81 µM): 0.195 | relative viability (HCC-44; first compound 50 µM): 0.185 | relative viability (HCC-44; first compound 158.11 µM): 0.268 | relative viability (HCC-44; first compound 500 µM): 0.248 | relative viability (NCI-H358; first compound 15.81 µM): 0.297 | relative viability (NCI-H358; first compound 50 µM): 0.31 | relative viability (NCI-H358; first compound 158.11 µM): 0.172 | relative viability (NCI-H358; first compound 500 µM): 0.017 | relative viability (201T; first compound 5 µM): 0.514 | relative viability (201T; first compound 15.81 µM): 0.432 | relative viability (201T; first compound 50 µM): 0.415 | relative viability (201T; first compound 158.11 µM): 0.36 | relative viability (201T; first compound 500 µM): 0.0726 | relative viability (EPLC-272H; first compound 5 µM): 0.286 | relative viability (EPLC-272H; first compound 15.81 µM): 0.26 | relative viability (EPLC-272H; first compound 50 µM): 0.309 | relative viability (EPLC-272H; first compound 158.11 µM): 0.279 | relative viability (EPLC-272H; first compound 500 µM): 0.0144 | relative viability (NCI-H1793; first compound 5 µM): 0.314 | relative viability (NCI-H1793; first compound 15.81 µM): 0.319 | relative viability (NCI-H1793; first compound 50 µM): 0.45 | relative viability (NCI-H1793; first compound 158.11 µM): 0.194 | relative viability (NCI-H1793; first compound 500 µM): 0.0229 | relative viability (NCI-H460; first compound 5 µM): 0.521 | relative viability (NCI-H460; first compound 15.81 µM): 0.449 | relative viability (NCI-H460; first compound 50 µM): 0.434 | relative viability (NCI-H460; first compound 158.11 µM): 0.115 | relative viability (NCI-H460; first compound 500 µM): 0.0156 | relative viability (NCI-H1650; first compound 5 µM): 0.403 | relative viability (NCI-H1650; first compound 15.81 µM): 0.408 | relative viability (NCI-H1650; first compound 50 µM): 0.366 | relative viability (NCI-H1650; first compound 158.11 µM): 0.136 | relative viability (NCI-H1650; first compound 500 µM): 0.0086 | relative viability (LK-2; first compound 5 µM): 0.379 | relative viability (LK-2; first compound 15.81 µM): 0.32 | relative viability (LK-2; first compound 50 µM): 0.517 | relative viability (LK-2; first compound 158.11 µM): 0.346 | relative viability (LK-2; first compound 500 µM): 0.0954 | relative viability (NCI-H2087; first compound 5 µM): 0.387 | relative viability (NCI-H2087; first compound 15.81 µM): 0.438 | relative viability (NCI-H2087; first compound 50 µM): 0.379 | relative viability (NCI-H2087; first compound 158.11 µM): 0.129 | relative viability (NCI-H2087; first compound 500 µM): 0.0066 | relative viability (EMC-BAC-2; first compound 5 µM): 0.531 | relative viability (EMC-BAC-2; first compound 15.81 µM): 0.517 | relative viability (EMC-BAC-2; first compound 50 µM): 0.502 | relative viability (EMC-BAC-2; first compound 158.11 µM): 0.226 | relative viability (EMC-BAC-2; first compound 500 µM): 0.0232 | relative viability (NCI-H2126; first compound 5 µM): 0.535 | relative viability (NCI-H2126; first compound 15.81 µM): 0.524 | relative viability (NCI-H2126; first compound 50 µM): 0.585 | relative viability (NCI-H2126; first compound 158.11 µM): 0.368 | relative viability (NCI-H2126; first compound 500 µM): 0.0437 | relative viability (SW 1573; first compound 5 µM): 0.347 | relative viability (SW 1573; first compound 15.81 µM): 0.357 | relative viability (SW 1573; first compound 50 µM): 0.304 | relative viability (SW 1573; first compound 158.11 µM): 0.0746 | relative viability (SW 1573; first compound 500 µM): 0.0663 | relative viability (HCC-827; first compound 5 µM): 0.361 | relative viability (HCC-827; first compound 15.81 µM): 0.374 | relative viability (HCC-827; first compound 50 µM): 0.41 | relative viability (HCC-827; first compound 158.11 µM): 0.318 | relative viability (HCC-827; first compound 500 µM): 0.185 | relative viability (BEN; first compound 5 µM): 0.242 | relative viability (BEN; first compound 15.81 µM): 0.251 | relative viability (BEN; first compound 50 µM): 0.255 | relative viability (BEN; first compound 158.11 µM): 0.25 | relative viability (BEN; first compound 500 µM): 0.215
